Measured values as given in paper PMC5593639, “NSC30049 inhibits Chk1 pathway in 5-FU-resistant CRC bulk and stem cell populations” (Oncotarget, 2017).

Key:
Solubility in water = assay type: physicochemical
[1] = system: human immunodeficiency virus (HIV) strain 1(RF); set-up: method as in http://dtp.cancer.gov/dtpstandard/AIDSData/index.jsp; settings: ref http://dtp.cancer.gov/dtpstandard/AIDSData/index.jsp; cited from earlier work
HCT-116 cells = assay: Cell survival (MTT assay), HCT-116; assay type: cell-based, human; settings: for cytotoxic effect: 48 h; for IC50: Homo sapiens, HCT-116, 48 h
Procedure: (§1) The survival of cells was determined by MTT (3-(4,5-Dimethylthiazol-2yl-)-2,5-diphenyl tetrazolium bromide) assay (ATCC, Manassas, VA, USA). In principle, the viable cell number is directly proportional to the purple formazan color of the reduced MTT dye, which can be quantitatively measured by spectrophotometry. Briefly, 1,500 cells were plated in quadruplets in 96-well flat-bottom tissue culture plates. After treatment with compounds for certain periods as described in respective figure legends, 10 μl of MTT reagent was added to each well and incubated at 37°C for 4 h to allow the formation of purple color crystals of formazan. In total, 100 μl of detergent solution was added to each well, and the reaction mixture was incubated in dark for 2–4 h at room temperature. The developed color density was then measured spectrophotometrically at 570 nm using the POLARstar Omega micro-plate reader (BMG Labtech, Inc., Cary, NC, USA).

HT29 cells = assay: Cell cycle profile by FACS; assay type: cell-based, human; settings: 2 mM HU 24 h
Procedure: For determining the cell cycle profile, cells were plated in 60 mm tissue culture dishes and grown until 60% confluence. […] After treatment, cells were harvested at different time intervals, washed with ice-cold PBS and processed for FACS analysis as described previously. The ranges for G0/G1, S, and G2/M phase arrested and sub-G1 apoptotic cells were established on the basis of the corresponding DNA content of the histograms. At minimum, 10,000 cells were counted from each sample.

[2] = system: Chk1 phosphorylation in HT29 cells; assay: Western blot of total and phosphorylated Chk1, HT29; assay type: cell-based, human; settings: 2 mM HU 24 h
Procedure: (§2) The levels of various proteins were determined by Western blot analysis with our previously described procedure. The antibodies for phospho-Chk1(Ser317), phospho-Chk1(Ser317), phospho-Chk1(Ser319), phospho-Chk1(Ser345), Chk1, and GAPDH were purchased from Cell Signaling Technology (Danvers, MA, USA).

HCT116(p53−/−) cells = assay: MTT assay, IC50 of HU, HCT116(p53−/−); assay type: cell-based, human; settings: 72 h, compared with HCT116(p53+/+) cells
Procedure: as §1

[3] = system: HCoEpiC normal colonic epithelial cell line; assay: Cell survival (MTT assay), HCoEpiC; assay type: cell-based; settings: Homo sapiens, drug alone, 48 h
Procedure: as §1

LoVo cells = assay: Cell survival (MTT assay), LoVo; assay type: cell-based; settings: Homo sapiens, drug alone, 48 h
Procedure: as §1

SW480 cells = assay: Cell survival (MTT assay), SW480; assay type: cell-based; settings: Homo sapiens, drug alone, 48 h
Procedure: as §1

LS174T cells = assay: Cell survival (MTT assay), LS174T; assay type: cell-based; settings: Homo sapiens, drug alone, 48 h
Procedure: as §1

RKO cells = assay: Cell survival (MTT assay), RKO; assay type: cell-based; settings: Homo sapiens, drug alone, 48 h
Procedure: as §1

CA2 CRC stem cell line = assay: Spheroid (sphere) formation assay; assay type: cell-based; settings: Homo sapiens; drug alone, seventh day
Procedure: Live CA2 cells (100) were seeded in 384-well ultra-low attachment plates. Next, day cells were treated with different concentrations of NSC49L and 5-FU either alone or in combination. Cells were incubated for 7 days and the number of spheroids were counted in control and treated groups under an Olympus inverted microscope with a 10× magnification.

[4] = system: ALDH1, KLF4, Nanog, Oct4, Sox2, c-Myc mRNA in CA2 cells; assay: Stem cell marker and self-renewal gene mRNA levels by qRT-PCR; assay type: cell-based, human; settings: drug alone, 72 h, normalized with GAPDH
Procedure: Total RNA was isolated from control and treated cells with RNAzol reagent (Invitogen, Carlsbad, CA, USA). The expression of mRNA levels of stemness genes was determined by qRT-PCR using Bio-Rad CFX96 Real Time System C1000 Thermal Cycler. The primers used for amplification of mRNA levels of genes were from Celprogen, Inc., as shown here with their Gene Bank accession and catalog numbers: ALDHA1 (NM_000689, Cat. No. CepALDHA1-02), Klf4 (NM_004235, Cat No. CepKlf4-02), Nanog (NM_024865, Cat. No. CepNanog-02), Oct4 (NM_002701, Cat No. CepOct4-02), Sox2 (NM_003106, Cat. No. CepSox2-02), c-Myc (NM_002467, Cat. No. Cepc-Myc-02) and GAPDH (NM_002046, Cat. No. Cep-GAPDH-02).

[5] = system: Chk1 phosphorylation in HCT-116 cells; assay: Western blot of total and phosphorylated Chk1, HCT-116; assay type: cell-based, human; settings: 5-FU alone, 24 h
Procedure: as §2

[6] = system: human-derived CRC stem cell tumors; assay: Patient-derived tumor xenograft (PDTX) of CRC stem cell tumors; assay type: in vivo, female SCID mice; settings: 20 mg/kg body weight 5-FU every day, 30 days
Procedure: With the pharmacokinetics analysis and MTD data in hand, we determined the efficacy of NSC49L and 5-FU alone and in combination for the growth of human-derived CRC stem cell tumors in vivo. CRC stem cells were isolated and characterized from the freshly resected human CRC tumor. One thousands of these CRC stem cells were injected subcutaneously into the right flank of the four 5-week old female SCID mice. After 20 days the first generation tumors (F0) of approximately 2,000 mm^3 in size were harvested. They were divided into four equal pieces and implanted under the skin of the female SCID mice for the growth of second generation tumors (F1) for testing the drug efficacy studies. We divided the F1 tumor bearing mice into four groups and treated them every day subcutaneously with drugs as follows: i) PBS control, (ii) 50 mg/kg body weight NSC49L, (iii) 20 mg/kg body weight 5-FU, and iv) 50 and 20 mg/kg body weight NSC49L and 5-FU, respectively, for 30 days. The treatment with drugs began after 10 days of tumor growth. The body weight and tumor volumes were recorded twice a weak. The experiment was terminated on the 32nd day.

[7] = set-up: method as in PMID 20482808; settings: cited from earlier work

SMILES: ClCC=CC[N+]12CN3CN(CN(C3)C1)C2 [NSC30049, 1-(4-Chloro-2-butenyl)-1λ∼5∼,3,5,7-tetraazatricyclo [3.3.1.1∼3,7∼] decane]
- Solubility in water (Solubility in water): readily soluble in water
- Activity against HIV [1]: inactive

SMILES: C1N2CN3CN1CN(C2)C3 [HMTA, hexamethylenetetramine, reference compound]
- cytotoxic effect (HCT-116 cells; MTT assay, Figure 1B): very little cytotoxic effect

SMILES: ClC/C=C\C[N+]12CN3CN(CN(C3)C1)C2 [c-NSC30049]
- IC50 (HCT-116 cells; MTT assay, Figure 1B, three experiments): 7.2 µM

SMILES: CC[N+](CC)(CC)CC=CCCl.[Cl-] [CBTA, (4-Chloro-but-2-enyl)triethylammonium chloride, reference compound]
- cytotoxic effect (HCT-116 cells; MTT assay, Figure 1B): very little cytotoxic effect

SMILES: NC(=O)NO [HU, hydroxyurea, reference compound]
- Cell cycle distribution G2/M (HT29 cells): 19.4%
- Cell cycle distribution S (S-phase arrest) (HT29 cells): 27.7%
- Cell cycle distribution S (S-phase arrest) (HT29 cells; HU withdrawn, 8 h drug-free medium): 42.4%
- Phosphorylation of Chk1 at S317, S345 and S296 [2]: increased
- IC50 of HU (HCT116(p53−/−) cells): decreased

SMILES: O=c1[nH]cc(F)c(=O)[nH]1 [5-FU, 5-fluorouracil]
- IC50 (HCT-116 cells; drug alone, MTT, Table 1, four estimations): 11.5 ± 1.5 µM
- IC50 [3]: 513 ± 22 µM
- IC50 (LoVo cells): 22 ± 0.9 µM
- IC50 (SW480 cells): 113 ± 6 µM
- IC50 (LS174T cells): 51 ± 3.8 µM
- IC50 (RKO cells): 68 ± 10.4 µM
- IC50 (CA2 CRC stem cell line): 7.5 µM
- mRNA levels of ALDH1, KLF4, Nanog, Oct4, Sox2 and c-Myc [4]: decreased
- Chk1 phosphorylation (S317, S345, S296) [5]: increased phosphorylation at all three Chk1 sites
- Growth of CRC stem cell tumors [6]: initially appreciable; however after the 21st day of treatment growth of the tumors resumed
- AUC (bioavailability) [7]: 59710 ± 10580 ng·h/mL
- t1/2 [7]: 12.6 ± 3.6 min
